# System: KRAS-mutant PDC tumor spheroid with HUVEC/MSC, viability
# Assay: Anticancer human tumor 327498-153-R-J2-PDC patient-derived uterine carcinosarcoma cell line growth inhibition [KRAS2]
# Settings: for IC50: curve of first compound; for viability, T/C: stronger effect = lower value
# Description: Multicellular complex tumor spheroid response to RAS pathway inhibitors in combination with a targeted agents in patient-derived cell lines with oncogenic KRAS variants from multiple cancer types
# A high-throughput screen of multi-cell type tumor spheroids was designed to identify active combinations of targeted small molecules and KRAS pathway inhibitors. Complex spheroids include a stromal component modeled by human endothelial cells (HUVEC) and fibroblasts modeled by human mesenchymal stem cells (MSCs). The concentration ranges selected for each drug and investigational agent were based upon clinically achievable concentrations if the clinical Cmax of the agent was known.
# Compounds. The drugs and investigational agents: BI-3406 (NSC825286), BAY-293 (NSC824723), batoprotafib (TNO155; NSC825523), sotorasib (AMG 510; NSC818433), MRTX1257 (NSC819558), elimusertib (BAY 1895344; NSC800525), molibresib (GSK525762; NSC774829), temuterkib (LY3214996; NSC803410), venetoclax (NSC766270), alisertib (NSC759677), olaparib (NSC753686), talazoparib (NSC767125), erdafitinib (NSC781556), ipatasertib (NSC767898), cabozantinib (NSC761068), nintedanib (NSC756659), abemaciclib (NSC768073), docetaxel (NSC628503), trametinib (NSC758246), and sapanisertib (NSC764658) were obtained from the National Cancer Institute (NCI) Developmental Therapeutics Program Chemical Repository. The FDA-approved anticancer drug set is available from the Developmental Therapeutics Program. […] The stock solutions were prepared in dimethyl sulfoxide (DMSO, Sigma-Aldrich, St. Louis, MO, cat. D2650) at 800-fold the tested concentration and stored at -70 degrees C prior to their use. All drugs and investigational agents were tested over a range starting from a high concentration at or near the clinical Cmax and decreasing in half-log increments. If the clinical Cmax for an agent had not been determined, the highest concentration tested was 10 microM.
# Cell Culture. All cells were maintained in an incubator at 37 degrees C and 5% CO2 with 95% humidity. The PDC lines were cultured according to standard operating procedures established by the NCI PDMR (https://pdmr.cancer.gov/sops/default.htm). Briefly, all PDCs were thawed and cultured in Matrigel-coated flasks prepared with a working solution of 1X Ham's F-12 nutrient mix, without supplementation (Invitrogen, Waltham, MA, cat. 11765054), 100 U/mL penicillin-streptomycin (Invitrogen, cat. 15140122), and 2.5% Matrigel (Corning Inc., Corning, NY, cat. 354248) for the first three passages. All PDCs were cultured in complete DMEM/F-12 media containing advanced DMEM/F-12 (Invitrogen, cat. 12634028), 4.9% defined fetal bovine serum, heat inactivated (HyClone Laboratories Inc., Logan, UT, cat. SH30070.03HI), 389 ng/mL hydrocortisone (Sigma-Aldrich, cat. H4001), 9.7 ng/mL human EGF recombinant protein (Invitrogen, cat. PHG0313), 23.4 microg/mL adenine (Sigma-Aldrich, cat. A2786), 97.3 U/mL penicillin-streptomycin (Invitrogen, cat. 15140122), 1.9 mM L-glutamine (Invitrogen, cat. 25030081), and 9.7 microM Y-27632 dihydrochloride (Tocris Bioscience, Bristol, United Kingdom, cat. 1254). The PDCs were cultured in complete DMEM/F12 media without 9.7 microM Y-27632 dihydrochloride for at least two passages prior to the screen. The established cell line HOP-62 was cultured in RPMI 1640 medium, HEPES (Invitrogen, cat. 22400105) with 10% defined fetal bovine serum (HyClone Laboratories Inc., cat. SH30070.03) and 2 mM L-glutamine (Invitrogen, cat. 25030081). The pooled donor HUVEC were cultured in endothelial cell growth medium 2 (PromoCell, Heidelberg, Germany, cat. C-22011) and the hMSC were cultured in mesenchymal stem cell growth medium 2 (PromoCell, cat. C-28009). For all experiments, HUVEC and hMSC were used at passages </=5, while the malignant cell lines were used at passages </=15. […]
# [1] = second compound 0.1 µM, first compound 0.0316 µM
# [2] = second compound 0.1 µM, first compound 0.1 µM
# [3] = second compound 0.316 µM, first compound 0.0316 µM
# [4] = second compound 0.316 µM, first compound 0.1 µM
# [5] = second compound 1 µM, first compound 0.0316 µM
# [6] = second compound 1 µM, first compound 0.1 µM
# [7] = second compound 3.16 µM, first compound 0.0316 µM
# [8] = second compound 3.16 µM, first compound 0.1 µM
# [9] = second compound 10 µM, first compound 0.0316 µM
# [10] = second compound 10 µM, first compound 0.1 µM
# 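Note: spheroids exposed to agents for seven days before reading.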
# 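Throughout, for viability, T/C: 100% = DMSO vehicle wells so lower means fewer viable cells.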
smiles,measurement,setting,value
CC(C)n1nc(-c2ccc3oc(N)nc3c2)c2c(N)ncnc21 + C=CC(=O)N1CCN(c2nc(=O)n(-c3c(C)ccnc3C(C)C)c3nc(-c4c(O)cccc4F)c(F)cc23)C(C)C1,IC50,second compound 0.1 µM,0.576 nM
same,IC50,second compound 0.316 µM,< 0.316 nM
same,IC50,second compound 1 µM,< 0.316 nM
same,IC50,second compound 3.16 µM,< 0.316 nM
same,IC50,second compound 10 µM,< 0.316 nM
same,"viability, T/C","second compound 0.1 µM, first compound 0.000316 µM",57.6%
same,"viability, T/C","second compound 0.1 µM, first compound 0.001 µM",40.7%
same,"viability, T/C","second compound 0.1 µM, first compound 0.00316 µM",34.6%
same,"viability, T/C","second compound 0.1 µM, first compound 0.01 µM",17.6%
same,"viability, T/C",[1],8.67%
same,"viability, T/C",[2],5.6%
same,"viability, T/C","second compound 0.316 µM, first compound 0.000316 µM",45.4%
same,"viability, T/C","second compound 0.316 µM, first compound 0.001 µM",41.2%
same,"viability, T/C","second compound 0.316 µM, first compound 0.00316 µM",26.1%
same,"viability, T/C","second compound 0.316 µM, first compound 0.01 µM",14.3%
same,"viability, T/C",[3],9.71%
same,"viability, T/C",[4],5.39%
same,"viability, T/C","second compound 1 µM, first compound 0.000316 µM",49.5%
same,"viability, T/C","second compound 1 µM, first compound 0.001 µM",38%
same,"viability, T/C","second compound 1 µM, first compound 0.00316 µM",23.5%
same,"viability, T/C","second compound 1 µM, first compound 0.01 µM",14.4%
same,"viability, T/C",[5],7.05%
same,"viability, T/C",[6],5.38%
same,"viability, T/C","second compound 3.16 µM, first compound 0.000316 µM",42.1%
same,"viability, T/C","second compound 3.16 µM, first compound 0.001 µM",33.2%
same,"viability, T/C","second compound 3.16 µM, first compound 0.00316 µM",21.5%
same,"viability, T/C","second compound 3.16 µM, first compound 0.01 µM",13.9%
same,"viability, T/C",[7],6.92%
same,"viability, T/C",[8],6.19%
same,"viability, T/C","second compound 10 µM, first compound 0.000316 µM",31.1%
same,"viability, T/C","second compound 10 µM, first compound 0.001 µM",25.3%
same,"viability, T/C","second compound 10 µM, first compound 0.00316 µM",19.1%
same,"viability, T/C","second compound 10 µM, first compound 0.01 µM",8.99%
same,"viability, T/C",[9],5.88%
same,"viability, T/C",[10],5.69%
COc1cc2nccc(Oc3ccc(NC(=O)C4(C(=O)Nc5ccc(F)cc5)CC4)cc3)c2cc1OC + C=CC(=O)N1CCN(c2nc(=O)n(-c3c(C)ccnc3C(C)C)c3nc(-c4c(O)cccc4F)c(F)cc23)C(C)C1,IC50,second compound 0.1 µM,1350 nM
same,IC50,second compound 0.316 µM,1150 nM
same,IC50,second compound 1 µM,1070 nM
same,IC50,second compound 3.16 µM,1030 nM
same,IC50,second compound 10 µM,< 31.6 nM
same,"viability, T/C",[1],55.8%
same,"viability, T/C",[2],63.5%
same,"viability, T/C","second compound 0.1 µM, first compound 0.316 µM",60.1%
same,"viability, T/C","second compound 0.1 µM, first compound 1 µM",59.6%
same,"viability, T/C","second compound 0.1 µM, first compound 3.16 µM",22.6%
same,"viability, T/C","second compound 0.1 µM, first compound 10 µM",1.82%
same,"viability, T/C",[3],56.8%
same,"viability, T/C",[4],59.5%
same,"viability, T/C","second compound 0.316 µM, first compound 0.316 µM",59.9%
same,"viability, T/C","second compound 0.316 µM, first compound 1 µM",54.5%
same,"viability, T/C","second compound 0.316 µM, first compound 3.16 µM",16.5%
same,"viability, T/C","second compound 0.316 µM, first compound 10 µM",1.34%
same,"viability, T/C",[5],49.1%
same,"viability, T/C",[6],52.4%
same,"viability, T/C","second compound 1 µM, first compound 0.316 µM",53.7%
same,"viability, T/C","second compound 1 µM, first compound 1 µM",54%
same,"viability, T/C","second compound 1 µM, first compound 3.16 µM",16%
same,"viability, T/C","second compound 1 µM, first compound 10 µM",1.1%
same,"viability, T/C",[7],51.4%
same,"viability, T/C",[8],49.7%
same,"viability, T/C","second compound 3.16 µM, first compound 0.316 µM",54.8%
same,"viability, T/C","second compound 3.16 µM, first compound 1 µM",50.9%
same,"viability, T/C","second compound 3.16 µM, first compound 3.16 µM",15.2%
same,"viability, T/C","second compound 3.16 µM, first compound 10 µM",0.82%
same,"viability, T/C",[9],36%
same,"viability, T/C",[10],37.5%
same,"viability, T/C","second compound 10 µM, first compound 0.316 µM",39.9%
same,"viability, T/C","second compound 10 µM, first compound 1 µM",34%
same,"viability, T/C","second compound 10 µM, first compound 3.16 µM",8.7%
same,"viability, T/C","second compound 10 µM, first compound 10 µM",0.79%
